Measurements published in patent publication US9726664B2, “Animal model for diabetic complications” (NEDERLANDSE ORGANISATIE VOOR …, priority 2010, dated 2017).

What was measured:
LDLr−/− mice [1] = experiment: Intervention study in LDLr−/− mice on 45 En % Lard diet: body weight and adipose depots; assay type: in vivo; conditions: for gonadal fat mass: drug mixed into diet from week 9 until week 16, FIG. 6
Procedure: Based on the findings of the above experiment, an intervention study was designed. The middle dose (45 En % lard diet) was defined to be the optimal diet to use for interventions with drugs since ALAT was not increased Thereby putative adverse liver effects of drugs can still be detected. Several anti-diabetic interventions (drugs and life-style) were tested according to the experimental set-up described above.
LDLr−/− mice (12 weeks old) were fed 45 En % Lard diet for 9 weeks to establish a prediabetic state (as described above and including visceral adiposity, hypertriglyceridemia, elevated glucose and insulin, chronic inflammation). After these 9 weeks, the interventions were started and continued until week 16. Drugs were mixed into lard diet and administered orally via the feed. One group of mice was sacrifice at the start of the intervention at week 9 for reference. Another control group was fed chow throughout the 16 weeks (serving as internal reference). The groups were as follows:
(§1) Body weight and food intake were measured regularly and blood samples were taken at t=0, t=6, t=9, t=12, t=14 and t=15 weeks. Spot urine was collected at t=0, t=8 and t=15 weeks. At the end of the study, the mice were sacrificed and the various organs were isolated and weighed and stored at −80 C and/or in formalin. Livers were processed for microarray analysis. More specifically, the same lobe of each liver was used for RNA extraction to prepare mRNA of microarray quality according to an established protocol (Kleemann et al., Genome Biology, 2007).

LDLr−/− mice [2] = experiment: Intervention study in LDLr−/− mice on 45 En % Lard diet: microalbuminuria (albumine/creatinine ratio in spot urine); assay type: in vivo; conditions: compared to high fat treated control animals not treated with drugs, ratio as μg albumine per mg creatinine, drug mixed into 45 En % Lard diet from week 9 until week 16, FIG. 7
Procedure: Several anti-diabetic interventions (drugs and life-style) were tested according to the experimental set-up described above.
After these 9 weeks, the interventions were started and continued until week 16. Drugs were mixed into lard diet and administered orally via the feed. One group of mice was sacrifice at the start of the intervention at week 9 for reference. Another control group was fed chow throughout the 16 weeks (serving as internal reference). The groups were as follows:
as §1
Microalbuminuria is a hallmark of diabetic nephropathy and was determined by measuring the concentration of albumine and creatinine in spot urine collected at various time points during the experiment. Subsequently the albumine/creatinine ratio was calculated, viz. the amount of albumine expressed in μg per mg creatinine (FIG. 7).

Compound | gonadal fat mass (LDLr−/− mice [1]) | body weight (LDLr−/− mice [1]; drug mixed into diet, orally via feed, from week 9 until week 16, FIG. 5) | albumine/creatinine ratio (microalbuminuria) (LDLr−/− mice [2])
O=S(=O)(c1ccccc1)N(CC(F)(F)F)c1ccc(C(O)(C(F)(F)F)C(F)(F)F)cc1 [LXR agonist] | lowered | reduced | –
CC(C)c1c(C(=O)Nc2ccccc2)c(-c2ccccc2)c(-c2ccc(F)cc2)n1CC[C@@H](O)C[C@@H](O)CC(=O)O [atorvastatin] | – | – | significantly improved
COc1ccc(Cl)cc1C(=O)NCCc1ccc(S(=O)(=O)NC(=O)NC2CCCCC2)cc1 [glibenclamide, Glibenclamide] | lowered | – | significantly improved
CN(C)C(=N)N=C(N)N [metformin] | – | – | significantly improved
O=C(O)c1ccccc1O [salicylate] | lowered | – | significantly improved
